Experimental findings from patent US20110124727A1, “Oxybuprocaine-Containing Analgesic/Antipruritic External Preparation” (Teikoku Seiyaku Co., LTD, priority 2008, published 2011) are described below.

The subject of the experiment is male ddy strain mouse. As to the kind of experiment: Pharmacological test of antipruritic action using mice (Compound 48/80-induced scratching). The conditions noted are these: for Number of times scratching occurred (mean ± standard error): counted for 30 minutes after Compound 48/80 100 μg/body s.c., oxybuprocaine in saline 10 mg/kg dorsal neck, cyproheptadine 1 mg/kg intraperitoneally, n=6.

The structures appear in SMILES notation.

`CCCCOc1cc(C(=O)OCCN(CC)CC)ccc1N` [oxybuprocaine, Oxybuprocaine]: the “Number of times scratching occurred (mean ± standard error)” value turned out to be 45.8 ± 18.9. The “Antipruritic effect in words (suppression of scratching behaviors)” value (compared to saline control group and cyproheptadine group) is given as “suppressed scratching behaviors strongly”. For `CN1CCC(=C2c3ccccc3C=Cc3ccccc32)CC1` [cyproheptadine], the “Number of times scratching occurred (mean ± standard error)” value was determined as 76.7 ± 21.3.
